{"source": "ChEMBL document CHEMBL1201862", "about": "“PubChem BioAssay data set” (2004)", "test_in_all_cases": "NCI-60 cell line screen, 48 h", "key": {"MOLT-4": {"system": "MOLT-4"}, "RPMI-8226": {"system": "RPMI-8226"}, "KM12": {"system": "KM12"}, "OVCAR-8": {"system": "OVCAR-8"}, "HCC 2998": {"system": "HCC 2998"}, "NCI-H23": {"system": "NCI-H23"}, "A549": {"system": "A549"}, "SW-620": {"system": "SW-620"}, "SK-MEL-28": {"system": "SK-MEL-28"}, "A498": {"system": "A498"}, "UACC-62": {"system": "UACC-62"}, "SF-539": {"system": "SF-539"}, "UO-31": {"system": "UO-31"}, "HCT-15": {"system": "HCT-15"}, "COLO 205": {"system": "COLO 205"}, "MDA-MB-231": {"system": "MDA-MB-231"}, "BT-549": {"system": "BT-549"}, "DU-145": {"system": "DU-145"}, "NCI/ADR-RES": {"system": "NCI/ADR-RES"}}, "note": "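Step 1: Grow cells in 96-well plates. Step 2: Expose to compound for 48 hours at 5 concentrations. Step 3: Interpolate endpoints linearly; if unreached, use highest concentration. At the GI50, growth is halved.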 Activity calls are given as the source filed them. Cut-off read from the data, not from the text of the source: active = GI50 up to about 1.1 µM and inactive = higher.", "data": [{"smiles": "COC(=O)/C(=N\\NC(N)=O)C(C#N)c1ccccc1", "note": "(centres undefined)", "values": [{"measurement": "GI50", "setting": "MOLT-4", "value": "> 100 µM (inactive)"}, {"measurement": "GI50", "setting": "RPMI-8226", "value": "> 100 µM (inactive)"}, {"measurement": "GI50", "setting": "KM12", "value": "> 100 µM (inactive)"}, {"measurement": "GI50", "setting": "OVCAR-8", "value": "> 100 µM (inactive)"}, {"measurement": "GI50", "setting": "HCC 2998", "value": "> 100 µM (inactive)"}, {"measurement": "GI50", "setting": "NCI-H23", "value": "> 100 µM (inactive)"}, {"measurement": "GI50", "setting": "A549", "value": "> 100 µM (inactive)"}, {"measurement": "GI50", "setting": "SW-620", "value": "> 100 µM (inactive)"}, {"measurement": "GI50", "setting": "SK-MEL-28", "value": "> 100 µM (inactive)"}, {"measurement": "GI50", "setting": "A498", "value": "> 100 µM (inactive)"}, {"measurement": "GI50", "setting": "UACC-62", "value": "> 100 µM (inactive)"}, {"measurement": "GI50", "setting": "SF-539", "value": "> 100 µM (inactive)"}, {"measurement": "GI50", "setting": "UO-31", "value": "> 100 µM (inactive)"}, {"measurement": "GI50", "setting": "HCT-15", "value": "> 100", "unit": "µM"}, {"measurement": "GI50", "setting": "COLO 205", "value": "> 100 µM (inactive)"}]}, {"smiles": "CCN1CC2=C(NC(=S)NC2c2cc(OC)c(OC)c(OC)c2)/C(=C/c2cc(OC)c(OC)c(OC)c2)C1", "note": "(centres undefined)", "values": [{"measurement": "GI50", "setting": "MOLT-4", "value": "20.9 µM (inactive)"}, {"measurement": "GI50", "setting": "RPMI-8226", "value": "14.1 µM (inactive)"}, {"measurement": "GI50", "setting": "KM12", "value": "98.6 µM (inactive)"}, {"measurement": "GI50", "setting": "OVCAR-8", "value": "21.7 µM (inactive)"}, {"measurement": "GI50", "setting": "HCC 2998", "value": "29.8 µM (inactive)"}, {"measurement": "GI50", "setting": "MDA-MB-231", "value": "34.1 µM (inactive)"}, {"measurement": "GI50", "setting": "NCI-H23", "value": "38.2 µM (inactive)"}, {"measurement": "GI50", "setting": "A549", "value": "26.7 µM (inactive)"}, {"measurement": "GI50", "setting": "BT-549", "value": "46.5 µM (inactive)"}, {"measurement": "GI50", "setting": "SW-620", "value": "86.3 µM (inactive)"}, {"measurement": "GI50", "setting": "SK-MEL-28", "value": "13.7 µM (inactive)"}, {"measurement": "GI50", "setting": "DU-145", "value": "33.3 µM (inactive)"}, {"measurement": "GI50", "setting": "NCI/ADR-RES", "value": "30.9 µM (inactive)"}, {"measurement": "GI50", "setting": "A498", "value": "27.3 µM (inactive)"}, {"measurement": "GI50", "setting": "UACC-62", "value": "31.8 µM (inactive)"}, {"measurement": "GI50", "setting": "UO-31", "value": "20.5 µM (inactive)"}, {"measurement": "GI50", "setting": "HCT-15", "value": 32, "unit": "µM"}, {"measurement": "GI50", "setting": "COLO 205", "value": "20.1 µM (inactive)"}]}, {"smiles": "N#C/C(C(=O)Nc1ccc(Cl)cc1)=C(/N)N1CCCC1", "values": [{"measurement": "GI50", "setting": "MOLT-4", "value": "> 100 µM (inactive)"}, {"measurement": "GI50", "setting": "RPMI-8226", "value": "> 100 µM (inactive)"}, {"measurement": "GI50", "setting": "KM12", "value": "> 100 µM (inactive)"}, {"measurement": "GI50", "setting": "OVCAR-8", "value": "> 100 µM (inactive)"}, {"measurement": "GI50", "setting": "HCC 2998", "value": "> 100 µM (inactive)"}, {"measurement": "GI50", "setting": "NCI-H23", "value": "> 100 µM (inactive)"}, {"measurement": "GI50", "setting": "A549", "value": "> 100 µM (inactive)"}, {"measurement": "GI50", "setting": "BT-549", "value": "> 100 µM (inactive)"}, {"measurement": "GI50", "setting": "SW-620", "value": "> 100 µM (inactive)"}, {"measurement": "GI50", "setting": "SK-MEL-28", "value": "> 100 µM (inactive)"}, {"measurement": "GI50", "setting": "DU-145", "value": "> 100 µM (inactive)"}, {"measurement": "GI50", "setting": "NCI/ADR-RES", "value": "> 100 µM (inactive)"}, {"measurement": "GI50", "setting": "A498", "value": "> 100 µM (inactive)"}, {"measurement": "GI50", "setting": "UACC-62", "value": "> 100 µM (inactive)"}, {"measurement": "GI50", "setting": "SF-539", "value": "> 100 µM (inactive)"}, {"measurement": "GI50", "setting": "UO-31", "value": "> 100 µM (inactive)"}, {"measurement": "GI50", "setting": "HCT-15", "value": "> 100", "unit": "µM"}, {"measurement": "GI50", "setting": "COLO 205", "value": "> 100 µM (inactive)"}]}, {"smiles": "Cc1cn(CC2=NCC(O)CN2)c(=O)[nH]c1=O", "note": "(centres undefined)", "values": [{"measurement": "GI50", "setting": "MOLT-4", "value": "> 100 µM (inactive)"}, {"measurement": "GI50", "setting": "RPMI-8226", "value": "> 100 µM (inactive)"}, {"measurement": "GI50", "setting": "KM12", "value": "> 100 µM (inactive)"}, {"measurement": "GI50", "setting": "OVCAR-8", "value": "> 100 µM (inactive)"}, {"measurement": "GI50", "setting": "HCC 2998", "value": "> 100 µM (inactive)"}, {"measurement": "GI50", "setting": "MDA-MB-231", "value": "> 100 µM (inactive)"}, {"measurement": "GI50", "setting": "NCI-H23", "value": "> 100 µM (inactive)"}, {"measurement": "GI50", "setting": "A549", "value": "> 100 µM (inactive)"}, {"measurement": "GI50", "setting": "SW-620", "value": "> 100 µM (inactive)"}, {"measurement": "GI50", "setting": "SK-MEL-28", "value": "> 100 µM (inactive)"}, {"measurement": "GI50", "setting": "DU-145", "value": "> 100 µM (inactive)"}, {"measurement": "GI50", "setting": "NCI/ADR-RES", "value": "> 100 µM (inactive)"}, {"measurement": "GI50", "setting": "A498", "value": "> 100 µM (inactive)"}, {"measurement": "GI50", "setting": "UACC-62", "value": "> 100 µM (inactive)"}, {"measurement": "GI50", "setting": "SF-539", "value": "> 100 µM (inactive)"}, {"measurement": "GI50", "setting": "UO-31", "value": "> 100 µM (inactive)"}, {"measurement": "GI50", "setting": "HCT-15", "value": "> 100", "unit": "µM"}, {"measurement": "GI50", "setting": "COLO 205", "value": "> 100 µM (inactive)"}]}]}
